Measurements from patent US6169181A, “Compounds useful to treat retroviral infections” (Pharmacia & Upjohn Company, priority 1998, dated 2001).
“And” between values parts separate entries of the source, which are not always exact repeats. Identical values can stand only once. Counter-ions that a name gives are not always drawn.

Tests used:
HIV-1 protease [1] = target: T1, HIV-1 protease (Human immunodeficiency virus type 1 group M subtype B, UniProt P04585); experiment: biochemical; settings: Table I, read-out: Protease % Inhib; for inhibition at 0.37 µM: Dose 0.370 μM; for inhibition at 1.1 µM: Dose 1.100 μM; for inhibition at 3.3 µM: Dose 3.300 μM
How it was run: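 A substrate biotinylated at the N-terminal arginine and FITC-labelled at the C-terminal lysine was incubated with HIV-1 protease (10 μl of 0.1 μM) and compound for 1 h in the dark at room temperature. Buffer was 0.1 M sodium acetate pH 5.5, 1.0 M NaCl, 0.05% NP-40. Labelled product was separated from substrate using streptavidin beads and filtration, and the fluorescence gave percent inhibition.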

HIV-1 protease [2] = target: T1, HIV-1 protease; experiment: biochemical; settings: Table I; read-out: HIV Protease FITC Assay Ki
How it was run: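 Biotinylated, FITC-labelled peptide substrate cleaved in 0.1 M sodium acetate pH 5.5, 1.0 M NaCl, 0.05% NP-40, room temperature. Filtered labelled product read by fluorescence; nonlinear least-squares fit.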

Row | Structure (SMILES) | inhibition at 0.123 µM (HIV-1 protease [1]) [%] | inhibition at 0.37 µM (HIV-1 protease [1]) [%] | inhibition at 1.1 µM (HIV-1 protease [1]) [%] | inhibition at 3.3 µM (HIV-1 protease [1]) [%] | inhibition at 10 µM (HIV-1 protease [1]) [%] | inhibition at 30 µM (HIV-1 protease [1]) [%] | Ki (HIV-1 protease [2]) | inhibition at 3.39 µM (HIV-1 protease [1]; Dose 3.390 μM) [%]
1 | CCC(CCNS(=O)(=O)c1cn(C)cn1)c1cc(O)c(C(c2cccc(NS(=O)(=O)c3cn(C)cn3)c2)C2CC2)c(=O)o1 (centres unmarked) [Example 107, N-(3-{Cyclopropyl-[6-(1-ethyl-3-{1-methyl-1H-imidazole-4-sulfonylamino}-propyl)-4-hydroxy-2-oxo-2H-pyran-3-yl]-methyl}-phenyl)-1-methyl-1H-imidazole-4-sulfonamide] | 92.7 | 99.2 | 105 | 103 | 110 | 103 | 0.89 nM and 0.7 nM | 
2 | CCC(CCBr)c1cc(O)c(C(c2cccc(NS(=O)(=O)c3cn(C)cn3)c2)C2CC2)c(=O)o1 (centres unmarked) [Example 108, N-(3-{[6-(3-Bromo-1-ethyl-propyl)-4-hydroxy-2-oxo-2H-pyran-3-yl]-cyclopropyl-methyl}-phenyl)-1-methyl-1H-imidazole-4-sulfonamide] | 103 | 102 | 102 |  | 108 | 106 | 0.16 nM | 102
3 | CCC(CCNC(=O)CCCCCCC(=O)N(C)CCS(=O)(=O)O)c1cc(O)c(C(c2cccc(NS(=O)(=O)c3cn(C)cn3)c2)C2CC2)c(=O)o1 (centres unmarked) [Example 110, 2-[[8-[[3-[3-[Cyclopropyl[3-[[(1-methyl-1H-imidazol-4-yl)sulfonyl]amino]phenyl]methyl]-4-hydroxy-2-oxo-2H-pyran-6-yl]pentyl]amino]-1,8-dioxooctyl]methylamino]-ethane sulfonic acid, monosodium salt] | 77.9 | 82.7 | 95.1 | 99.1 | 99.2 | 101 | 3.26 nM and 3.63 nM | 
4 | CCC(Cc1ccccc1)c1cc(O)c(C(c2cccc(NS(=O)(=O)c3cn(C)cn3)c2)C2CC2)c(=O)o1 (centres unmarked) [Example 136, N-(3-{Cyclopropyl-[6-(1-ethylphenethyl)-4-hydroxy-2-oxo-2H-pyran-3-yl]-methyl}-phenyl)-1-methyl-1H-imidazole-4-sulfonamide] | 71.7 | 85.7 | 99 | 101 | 102 | 102 | 1.32 nM | 
5 | CCC(CC1CCOCC1)c1cc(O)c(C(c2cccc(NS(=O)(=O)c3nccn3C)c2)C2CC2)c(=O)o1 (centres unmarked) [Example 145, N-(3-{Cyclopropyl-[6-(1-(tetrahydropyran-4-ylmethyl)-propyl)-4-hydroxy-2-oxo-2H-pyran-3-yl]-methyl}-phenyl)-1-methyl-1H-imidazole-2-sulfonamide] | 73.6 | 89.8 | 99.7 | 94.8 | 96.8 | 88 | 0.49 nM | 
6 | CCC(CC1CCCOC1)c1cc(O)c(C(c2cccc(NS(=O)(=O)c3cccc4cccnc34)c2)C2CC2)c(=O)o1 (centres unmarked) [Example 145A, N-(3-[Cyclopropyl[4-hydroxy-2-oxo-6-[1-[(tetrahydro-2H-pyran-3-yl)methyl]propyl]-2H-pyran-3-yl]methyl]phenyl]-8-quinolinesulfonamide] | 109 | 111 | 119 | 115 | 113 | 114 | 1.1 nM | 
7 | CCC(CC1CCCOC1)c1cc(O)c(C(c2cccc(NS(=O)(=O)c3cn(C)cn3)c2)C2CC2)c(=O)o1 (centres unmarked) [Example 145B, N-(3-[Cyclopropyl[4-hydroxy-2-oxo-6-[1-[(tetrahydro-2H-pyran-3-yl)methyl]propyl]-2H-pyran-3-yl]methyl]phenyl]-1-methyl-1H-imidazole-4-sulfonamide] | 81.8 | 88.4 | 96.5 | 87.8 | 102 | 84.5 | 1.24 nM | 
8 | CC[C@H](Cc1ccccc1)c1cc(O)c(C(c2cccc(NS(=O)(=O)c3nc4ccccc4[nH]3)c2)C2CC2)c(=O)o1 (stereo partly drawn) [Example 146, N-(3-{Cyclopropyl-[6-(1-(R)-ethylphenethyl)-4-hydroxy-2-oxo-2H-pyran-3-yl]-methyl}-phenyl)-benzimidazole-2-sulfonamide] | 68.1 | 87.4 | 103 | 103 | 103 | 102 | 0.69 nM | 
